According to article PMC6435658, “Investigation into the Molecular Mechanisms underlying the Anti-proliferative and Anti-tumorigenesis activities of Diosmetin against HCT-116 Human Colorectal Cancer” (Scientific Reports, 2019):
Values after ≈ are worked out from the molar mass of the structure shown.

What was measured:
[1] = system: HT-29 cells; assay: MTT cytotoxicity assay, HT-29; assay type: cell-based, human; details: for IC50: Homo sapiens, MTT
Experimental: [Worded in the source for another cell line; this cell line is reported under the same test.] Cytotoxicity property of Dis against HCT-116 and CCD-841 cells were measured by MTT assay as described by Mossman[77]. Briefly, cells were treated with different concentration of Dis and 5-Fu (positive control) with serial dilution factor of 2 for 8 concentrations in 96 well-plate for different time points (24 h, 48 h and 72 h). Subsequently at the end of each time point 20 µl of MTT (5 mg/ml, Affymetrix,Cleveland, OH, USA) were added to each well followed by 4 h incubation. The solutions were aspirated after 4 h and 100 µl of DMSO were added to each well. Absorbance for each well was read at 570 nm as measured by using microplate reader (Tecan Infinite multimode, Männedorf, Switzerland). Cytotoxicity (cell death) was measured by using the following formula: Celldeath(%)=sampleOD−controlOD/controlOD100
This assay was performed in triplicates in three independent experiments. The cytotoxicity property of Dis was presented as IC50 value.

[2] = system: HCT-116 cells; assay: Cell cycle analysis by flow cytometry; assay type: cell-based, human; details: HCT-116, 24 h, 48 h, 72 h
Experimental: Flow cytometry analysis was performed to determine any disruption during the cell cycle of HCT-116 cells in the presence of Dis. HCT-116at density of 2 × 10^6 cells were seeded and treated for 24 h, 48 h and 72 h in a 75 cm^2 flask. Negative control was treated with 0.02% DMSO. After fixation of the cells with 70% ethanol, cells were preserved in −20 °C overnight followed by washing and staining with 500 µl of PI/Rnase dye (BD Biosciences, San Jose, CA, USA) and incubated for 30 min. DNA content analysis was performed using BD FACSCanto II flow cytometer instrument and BD FACS Diva software (BD FACSCanto™II, San Jose, CA, USA). A total of 15,000 events per sample were recorded for analysis. ModFit LT version 3.0 software was used for analyzing the data.

`COc1ccc(-c2cc(=O)c3c(O)cc(O)cc3o2)cc1O` [Dis, Diosmetin] was tested, and the IC50 ([1]; HT-29, 24 h) was 44.5 ± 1.75 µg/mL (≈ 148 µM), the IC50 ([1]; HT-29, 48 h) was 17.6 ± 0.61 µg/mL (≈ 58.4 µM) and the IC50 ([1]; HT-29, 72 h) was 11.46 ± 0.1 µg/mL (≈ 38.2 µM). For the same compound, the “Selectivity Index (SI)” value ([1]; IC50 CCD-841 / IC50 HT-29, 24 h) was 5.31, the “Selectivity Index (SI)” value ([1]; IC50 CCD-841 / IC50 HT-29, 48 h) was 2.96 and the “Selectivity Index (SI)” value ([1]; IC50 CCD-841 / IC50 HT-29, 72 h) was 3.53. The cell cycle arrest [2] was “arrested in G2/M phase”.
